Source: patent publication US20230103631A1, “PEPTIDES AS SELECTIVE GIP RECEPTOR AGONISTS” (Sanofi, priority 2020, published 2023)
*1 amine or outer side, *2 acyl side, *3 side chain or, on linkers, in order; H or OH if unused. Where a SMILES comes first, the peptide text is derived from it. Where no end group is shown, it is not given here. Side-chain parts run from the residue outwards. [ ]: non-standard residue; d: D form. The star is where a group is joined. C20 diacid = O=C(O)CCCCCCCCCCCCCCCCCCC(=O)*; C18 diacid = O=C(O)CCCCCCCCCCCCCCCCC(=O)*; γGlu = O=C(O)[C@H](CCC(=O)[*:2])N[*:1]; AEEA = NCCOCCOCC(=O)O; Aib = CC(C)(N)C(=O)O; Sar = CNCC(=O)O

T1: human GIP receptor (human, UniProt P48546 22-466)
T1 sequence (looked up): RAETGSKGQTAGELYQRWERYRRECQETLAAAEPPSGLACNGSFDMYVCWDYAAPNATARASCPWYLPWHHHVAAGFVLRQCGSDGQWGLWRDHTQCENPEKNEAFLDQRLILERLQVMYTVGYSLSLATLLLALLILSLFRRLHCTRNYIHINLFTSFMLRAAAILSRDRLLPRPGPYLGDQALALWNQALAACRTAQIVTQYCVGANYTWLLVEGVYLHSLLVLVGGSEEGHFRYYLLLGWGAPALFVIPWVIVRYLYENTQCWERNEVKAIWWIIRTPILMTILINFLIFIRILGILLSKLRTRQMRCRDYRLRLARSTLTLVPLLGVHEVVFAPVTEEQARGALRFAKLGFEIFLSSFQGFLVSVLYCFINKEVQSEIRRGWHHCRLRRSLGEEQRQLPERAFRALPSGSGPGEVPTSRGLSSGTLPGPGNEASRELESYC


Tests used:
physchem = format: physicochemical; settings: for Soluble amount: 24 h, pH 7.4; for solubility at 24 h: pH 7.4, Soluble amount
Method: Prior to the solubility measurement of a peptide batch, its purity was determined through UHPLC/MS. […] Therefore, solutions from solid samples were prepared in a buffer system with a concentration of 10 mg/ml compound based on the previously determined % purity: Solubility buffer system A) 100 mM phosphate buffer pH 7.4 […] Solubility buffer system C) 100 mM phosphate buffer pH 7.4, 2.7 mg/ml m-cresol UHPLC-UV was performed after 1 h of gentle agitation and storage at 5° C. over night (24 h) from the supernatant, which was obtained after 15 min of centrifugation at 2500 RCF (relative centrifugal acceleration). […] The different UV extinction coefficients of sample and reference peptide were calculated based on the different amino acid sequences and considered in the concentration calculation. The analytical method used was Analytical UHPLC Method A. Peptide samples were prepared in solubility buffer system A or C and solubility was assessed as described in Methods.

[1] = molecular target: human GLP-1 receptor (hGLP-1R) (Homo sapiens, UniProt P43220); assay: cAMP HTRF assay, HEK-293 cell line over-expressing human GLP-1 receptor; format: cell-based; settings: HEK-293, cAMP, 0% HSA
Chain of human GLP-1 receptor (hGLP-1R) (P43220 24-463): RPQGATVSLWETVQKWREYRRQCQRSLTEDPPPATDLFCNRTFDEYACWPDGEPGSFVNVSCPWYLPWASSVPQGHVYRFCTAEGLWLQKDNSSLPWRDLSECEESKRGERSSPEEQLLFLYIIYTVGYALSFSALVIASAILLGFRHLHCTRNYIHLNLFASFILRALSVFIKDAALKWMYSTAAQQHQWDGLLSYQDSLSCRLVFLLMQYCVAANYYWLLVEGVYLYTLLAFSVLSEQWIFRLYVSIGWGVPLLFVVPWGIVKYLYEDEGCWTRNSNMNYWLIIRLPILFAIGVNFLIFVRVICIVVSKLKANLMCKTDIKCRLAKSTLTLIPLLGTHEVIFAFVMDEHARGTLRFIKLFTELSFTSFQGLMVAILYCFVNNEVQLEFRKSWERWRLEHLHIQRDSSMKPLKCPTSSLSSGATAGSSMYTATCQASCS
Method: Each vial contained 1.8 ml cells. The vials were slowly frozen to −80° C. in isopropanol, and then transferred in liquid nitrogen for storage.
Prior to their use, frozen cells were thawed quickly at 37° C. and washed (5 min at 900 rpm) with 20 ml cell buffer (1× HBSS; 20 mM HEPES, plus 0.1% HSA if indicated in Example conditions).
For measurement of cAMP generation, 5 μl cells (final 5000 cells/well) and 5 μl of test compound were added to a 384-well plate, followed by incubation for 30 min at room temperature.
The cAMP generated was determined using a kit from Cisbio Corp. based on HTRF (Homogenous Time Resolved Fluorescence). The cAMP assay was performed according to manufacturer's instructions (Cisbio).

human GIP receptor = molecular target: T1, human GIP receptor; assay: cell-based or functional assay
human GLP-1 receptor = human GLP-1 receptor (human, UniProt P43220 24-463); assay: cell-based or functional assay

Row | Molecule | Soluble amount (physchem) [mg/mL] | solubility at 24 h (physchem) [mg/mL] | EC50 [1] [nM] | EC50 hGIPR 0% HSA, cAMP in HEK-293 cells (human GIP receptor) [pM] | EC50 hGIPR 0.1% HSA, cAMP in HEK-293 cells (human GIP receptor) [pM] | EC50 hGLP-1R 0% HSA, cAMP in HEK-293 cells (human GLP-1 receptor) [nM]
1 | CC[C@H](C)[C@H](NC(=O)[C@H](Cc1ccccc1)NC(=O)[C@H](CCC(=O)O)NC(=O)[C@H](CCC(=O)O)NC(=O)[C@H](CCC(N)=O)NC(=O)[C@H](Cc1c[nH]cn1)NC(=O)[C@@H](NC(=O)[C@H](CCCNC(=N)N)NC(=O)[C@H](CC(=O)O)NC(=O)[C@H](CCCCNC(=O)CNC(=O)CNC(=O)CNC(=O)CC[C@H](NC(=O)CCCCCCCCCCCCCCCCC(=O)O)C(=O)O)NC(=O)C(C)(C)NC(=O)[C@@H](NC(=O)[C@H](CO)NC(=O)[C@H](CC(C)C)NC(=O)[C@H](CC(=O)O)NC(=O)[C@H](CO)NC(=O)[C@@H](NC(=O)[C@H](Cc1ccccc1)NC(=O)[C@@H](NC(=O)CNC(=O)[C@H](CCC(=O)O)NC(=O)C(C)(C)NC(=O)[C@@H](N)Cc1ccc(O)cc1)[C@@H](C)O)[C@@H](C)CC)[C@@H](C)CC)[C@@H](C)CC)C(=O)N[C@@H](CCC(=O)O)C(=O)N[C@@H](Cc1c[nH]c2ccccc12)C(=O)N[C@@H](CC(C)C)C(=O)N[C@@H](CC(C)C)C(=O)N[C@@H](C)C(=O)N[C@@H](CCC(N)=O)C(=O)NCC(=O)N1CCC[C@H]1C(=O)N[C@@H](CO)C(=O)N[C@@H](CO)C(=O)NCC(=O)N[C@@H](C)C(=O)N1CCC[C@H]1C(=O)N1CCC[C@H]1C(=O)N1CCC[C@H]1C(=O)N[C@@H](CO)C(N)=O [SEQ ID NO: 16, H2N-Y-Aib-E-G-T-F-I-S-D-I-S-I-Aib-K[{Gly}3-gGlu-C18OH]-DRIHQEEFIEWILAQGPSSGAPPPS-NH2] (H-Y[Aib]EGTFISDLSI[Aib]K([Gly-Gly-Gly-γGlu-C18 diacid])DRIHQEEFIEWLLAQGPSSGAPPPS-NH2) | >9.9 | > 10 | > 10 | – | – | –
2 | CC[C@H](C)[C@H](NC(=O)[C@H](Cc1ccccc1)NC(=O)[C@H](CCC(=O)O)NC(=O)[C@H](CCC(=O)O)NC(=O)[C@H](CCC(N)=O)NC(=O)[C@H](Cc1c[nH]cn1)NC(=O)[C@@H](NC(=O)[C@H](CCCNC(=N)N)NC(=O)[C@H](CC(=O)O)NC(=O)[C@H](CCCCNC(=O)CN(C)C(=O)CN(C)C(=O)CN(C)C(=O)CC[C@H](NC(=O)CCCCCCCCCCCCCCCCC(=O)O)C(=O)O)NC(=O)C(C)(C)NC(=O)[C@@H](NC(=O)[C@H](CO)NC(=O)[C@H](CC(C)C)NC(=O)[C@H](CC(=O)O)NC(=O)[C@H](CO)NC(=O)[C@@H](NC(=O)[C@H](Cc1ccccc1)NC(=O)[C@@H](NC(=O)CNC(=O)[C@H](CCC(=O)O)NC(=O)C(C)(C)NC(=O)[C@@H](N)Cc1ccc(O)cc1)[C@@H](C)O)[C@@H](C)CC)[C@@H](C)CC)[C@@H](C)CC)C(=O)N[C@@H](CCC(=O)O)C(=O)N[C@@H](Cc1c[nH]c2ccccc12)C(=O)N[C@@H](CC(C)C)C(=O)N[C@@H](CC(C)C)C(=O)N[C@@H](C)C(=O)N[C@@H](CCC(N)=O)C(=O)NCC(=O)N1CCC[C@H]1C(=O)N[C@@H](CO)C(=O)N[C@@H](CO)C(=O)NCC(=O)N[C@@H](C)C(=O)N1CCC[C@H]1C(=O)N1CCC[C@H]1C(=O)N1CCC[C@H]1C(=O)N[C@@H](CO)C(N)=O [SEQ ID NO: 17, H2N-Y-Aib-E-G-T-F-I-S-D-I-S-I-Aib-K[{N-MeGly}3-gGlu-C18OH]-DRIHQEEFIEWILAQGPSSGAPPPS-NH2] (H-Y[Aib]EGTFISDLSI[Aib]K([Sar-Sar-Sar-γGlu-C18 diacid])DRIHQEEFIEWLLAQGPSSGAPPPS-NH2) | >11.8 | > 10.9 | > 10 | – | – | –
3 | CC[C@H](C)[C@H](NC(=O)[C@H](Cc1ccccc1)NC(=O)[C@H](CCC(=O)O)NC(=O)[C@H](CCC(=O)O)NC(=O)[C@H](CCC(N)=O)NC(=O)[C@H](Cc1c[nH]cn1)NC(=O)[C@@H](NC(=O)[C@H](CCCNC(=N)N)NC(=O)[C@H](CC(=O)O)NC(=O)[C@H](CCCCNC(=O)COCCOCCNC(=O)COCCOCCNC(=O)CC[C@H](NC(=O)CC[C@H](NC(=O)CCCCCCCCCCCCCCCCCCC(=O)O)C(=O)O)C(=O)O)NC(=O)C(C)(C)NC(=O)[C@@H](NC(=O)[C@H](CO)NC(=O)[C@H](CC(C)C)NC(=O)[C@H](CC(=O)O)NC(=O)[C@H](CO)NC(=O)[C@@H](NC(=O)[C@H](Cc1ccccc1)NC(=O)[C@@H](NC(=O)CNC(=O)[C@H](CCC(=O)O)NC(=O)C(C)(C)NC(=O)[C@@H](N)Cc1ccc(O)cc1)[C@@H](C)O)[C@@H](C)CC)[C@@H](C)CC)[C@@H](C)CC)C(=O)N[C@@H](CCC(=O)O)C(=O)N[C@@H](Cc1c[nH]c2ccccc12)C(=O)N[C@@H](CC(C)C)C(=O)N[C@@H](CC(C)C)C(=O)N[C@@H](C)C(=O)N[C@@H](CCC(N)=O)C(=O)NCC(=O)N1CCC[C@H]1C(=O)N[C@@H](CO)C(=O)N[C@@H](CO)C(=O)NCC(=O)N[C@@H](C)C(=O)N1CCC[C@H]1C(=O)N1CCC[C@H]1C(=O)N1CCC[C@H]1C(=O)N[C@@H](CO)C(N)=O [SEQ ID NO: 15, H2N-Y-Aib-E-G-T-F-I-S-D-I-S-I-Aib-K[{AEEA}2-{gGlu}2-C20OH]-DRIHQEEFIEWILAQGPSSGAPPPS-NH2] (H-Y[Aib]EGTFISDLSI[Aib]K([AEEA-AEEA-γGlu-γGlu-C20 diacid])DRIHQEEFIEWLLAQGPSSGAPPPS-NH2) | >9.2 | > 10.3 | > 10 | – | – | –
4 | CC[C@H](C)[C@H](NC(=O)[C@H](Cc1ccccc1)NC(=O)[C@H](CCC(=O)O)NC(=O)[C@H](CCC(=O)O)NC(=O)[C@H](CCC(N)=O)NC(=O)[C@H](Cc1c[nH]cn1)NC(=O)[C@@H](NC(=O)[C@H](CCCNC(=N)N)NC(=O)[C@H](CC(=O)O)NC(=O)[C@H](CCCCNC(=O)COCCOCCNC(=O)COCCOCCNC(=O)CC[C@H](NC(=O)CC[C@H](NC(=O)CCCCCCCCCCCCCCCCC(=O)O)C(=O)O)C(=O)O)NC(=O)C(C)(C)NC(=O)[C@@H](NC(=O)[C@H](CO)NC(=O)[C@H](CC(C)C)NC(=O)[C@H](CC(=O)O)NC(=O)[C@H](CO)NC(=O)[C@@H](NC(=O)[C@H](Cc1ccccc1)NC(=O)[C@@H](NC(=O)CNC(=O)[C@H](CCC(=O)O)NC(=O)C(C)(C)NC(=O)[C@@H](N)Cc1ccc(O)cc1)[C@@H](C)O)[C@@H](C)CC)[C@@H](C)CC)[C@@H](C)CC)C(=O)N[C@@H](CCC(=O)O)C(=O)N[C@@H](Cc1c[nH]c2ccccc12)C(=O)N[C@@H](CC(C)C)C(=O)N[C@@H](CC(C)C)C(=O)N[C@@H](C)C(=O)N[C@@H](CCC(N)=O)C(=O)NCC(=O)N1CCC[C@H]1C(=O)N[C@@H](CO)C(=O)N[C@@H](CO)C(=O)NCC(=O)N[C@@H](C)C(=O)N1CCC[C@H]1C(=O)N1CCC[C@H]1C(=O)N1CCC[C@H]1C(=O)N[C@@H](CO)C(N)=O [SEQ ID NO: 14, H2N-Y-Aib-E-G-T-F-I-S-D-I-S-I-Aib-K[{AEEA}2-{gGlu}2-C18OH]-DRIHQEEFIEWILAQGPSSGAPPPS-NH2] (H-Y[Aib]EGTFISDLSI[Aib]K([AEEA-AEEA-γGlu-γGlu-C18 diacid])DRIHQEEFIEWLLAQGPSSGAPPPS-NH2) | >9.7 | > 9.3 | > 10 | – | – | –
5 | Y[Aib]EGTFISDLSI[Aib]K([Sar-Sar-Sar-γGlu-C18 diacid])DRIHQEEFIEWLLAQGPSSGAPPPS-NH2 (N-terminus assumed; SMILES CC[C@H](C)[C@H](NC(=O)[C@H](Cc1ccccc1)NC(=O)[C@H](CCC(=O)O)NC(=O)[C@H](CCC(=O)O)NC(=O)[C@H](CCC(N)=O)NC(=O)[C@H](Cc1c[nH]cn1)NC(=O)[C@@H](NC(=O)[C@H](CCCNC(=N)N)NC(=O)[C@H](CC(=O)O)NC(=O)[C@H](CCCCNC(=O)CN(C)C(=O)CN(C)C(=O)CN(C)C(=O)CC[C@H](NC(=O)CCCCCCCCCCCCCCCCC(=O)O)C(=O)O)NC(=O)C(C)(C)NC(=O)[C@@H](NC(=O)[C@H](CO)NC(=O)[C@H](CC(C)C)NC(=O)[C@H](CC(=O)O)NC(=O)[C@H](CO)NC(=O)[C@@H](NC(=O)[C@H](Cc1ccccc1)NC(=O)[C@@H](NC(=O)CNC(=O)[C@H](CCC(=O)O)NC(=O)C(C)(C)NC(=O)[C@@H](N)Cc1ccc(O)cc1)[C@@H](C)O)[C@@H](C)CC)[C@@H](C)CC)[C@@H](C)CC)C(=O)N[C@@H](CCC(=O)O)C(=O)N[C@@H](Cc1c[nH]c2ccccc12)C(=O)N[C@@H](CC(C)C)C(=O)N[C@@H](CC(C)C)C(=O)N[C@@H](C)C(=O)N[C@@H](CCC(N)=O)C(=O)NCC(=O)N1CCC[C@H]1C(=O)N[C@@H](CO)C(=O)N[C@@H](CO)C(=O)NCC(=O)N[C@@H](C)C(=O)N1CCC[C@H]1C(=O)N1CCC[C@H]1C(=O)N1CCC[C@H]1C(=O)N[C@@H](CO)C(N)=O) [SEQ ID NO: 17] | – | – | – | 0.29 | 3.39 | > 10
